# Data reported in patent publication US9694016B2 (Novartis AG, priority 2013, dated 2017).
# Read-outs that look alike come from different tables or passages of the source.
# Biological target: b-Raf (V600E) (Homo sapiens (Human), UniProt P15056, V600E)
# Conditions: read-out: b-Raf IC-50, AlphaScreen
# [1] = 60 min pre-incubation, reaction 3 hours at room temperature
# [2] = 60 min pre-incubation, 3 hours reaction
# Chain of b-Raf (V600E) (P15056 whole entry V600E): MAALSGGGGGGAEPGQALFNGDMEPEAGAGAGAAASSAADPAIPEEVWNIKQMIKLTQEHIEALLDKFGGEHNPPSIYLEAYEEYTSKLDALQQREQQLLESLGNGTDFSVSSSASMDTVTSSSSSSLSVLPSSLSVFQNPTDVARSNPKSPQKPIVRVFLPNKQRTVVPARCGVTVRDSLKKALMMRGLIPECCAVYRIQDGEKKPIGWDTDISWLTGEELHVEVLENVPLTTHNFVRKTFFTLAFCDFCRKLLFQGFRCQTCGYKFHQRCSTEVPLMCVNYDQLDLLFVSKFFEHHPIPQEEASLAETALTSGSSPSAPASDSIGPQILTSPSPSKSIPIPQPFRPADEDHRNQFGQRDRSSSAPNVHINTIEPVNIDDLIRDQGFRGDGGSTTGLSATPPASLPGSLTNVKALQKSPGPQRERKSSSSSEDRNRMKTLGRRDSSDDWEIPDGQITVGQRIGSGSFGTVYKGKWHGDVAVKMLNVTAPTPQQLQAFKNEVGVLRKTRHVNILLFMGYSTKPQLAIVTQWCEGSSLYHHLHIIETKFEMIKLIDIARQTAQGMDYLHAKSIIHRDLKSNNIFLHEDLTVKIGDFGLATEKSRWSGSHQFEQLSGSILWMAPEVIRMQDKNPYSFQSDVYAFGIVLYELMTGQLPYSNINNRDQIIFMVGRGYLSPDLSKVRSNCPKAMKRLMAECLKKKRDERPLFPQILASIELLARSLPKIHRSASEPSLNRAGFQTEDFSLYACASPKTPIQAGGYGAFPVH
SMILES,IC50 [1] [nM],IC50 [2] [nM],also measured
"Cc1ccc(NC(=O)c2ccnc(C(C)(F)F)c2)cc1-c1cc(N2CCOCC2)nc(N2CC(O)C2)c1 [Example 1078, 2-(1,1-difluoroethyl)-N-(3-(2-(3-hydroxyazetidin-1-yl)-6-morpholinopyridin-4-yl)-4-methylphenyl)isonicotinamide]",0.67,,
"Cc1ncc(NC(=O)c2cc(C(C)(C)F)ccn2)cc1-c1cnc(OC(C)C)c(N2CCOCC2)c1 [Example 957, 4-(2-fluoropropan-2-yl)-N-(6′-isopropoxy-2-methyl-5′-morpholino-[3,3′-bipyridin]-5-yl)picolinamide]",6.23,,
"Cc1ncc(NC(=O)c2ccnc(C(C)(F)F)c2)cc1-c1cc(N2CCOCC2)n2nccc2n1 [Example 799, 2-(1,1-difluoroethyl)-N-(6-methyl-5-(7-morpholinopyrazolo[1,5-a]pyrimidin-5-yl)pyridin-3-yl)isonicotinamide]",,1.5,
"CCNc1nc(-c2cc(NC(=O)c3cccc(-c4nnco4)c3)ccc2C)cc(N2CCOCC2)n1 [Example 699, N-(3-(2-(ethylamino)-6-morpholinopyrimidin-4-yl)-4-methylphenyl)-3-(1,3,4-oxadiazol-2-yl)benzamide]",,1.7,
Cc1ccc(NC(=O)c2cnnc(C(F)(F)F)c2)cc1-c1cc(N2CCOCC2)c2nccn2c1 [Example 852],0.7,,
"Cc1ncc(NC(=O)c2ccnc(C(C)(C)C#N)c2)cc1-c1cc(N2CCOCC2)nc(NC[C@@H](C)O)n1 [Example 742, (R)-2-(2-cyanopropan-2-yl)-N-(5-(2-((2-hydroxypropyl)amino)-6-morpholinopyrimidin-4-yl)-6-methylpyridin-3-yl)isonicotinamide]",,38.6,
"Cc1ccc(NC(=O)c2ccnc(C(F)F)c2)cc1-c1cc(NCCO)nc(N2CCOCC2)c1F [Example 1009, 2-(difluoromethyl)-N-(3-(3-fluoro-6-((2-hydroxyethyl)amino)-2-morpholinopyridin-4-yl)-4-methylphenyl)isonicotinamide]",14.8,,
"Cc1ccc(NC(=O)c2cnnc(C(F)(F)F)c2)cc1-c1cc(N2CCOCC2)nc(N2CC(O)C2)c1 [Example 1070, N-(3-(2-(3-hydroxyazetidin-1-yl)-6-morpholinopyridin-4-yl)-4-methylphenyl)-6-(trifluoromethyl)pyridazine-4-carboxamide]",2.41,,
"Cc1ncc(C(=O)Nc2cccc(C(C)(C)C#N)c2)cc1-c1cc(N2CCOCC2)c(=O)n(C)c1 [Example 444, N-(3-(2-cyanopropan-2-yl)phenyl)-1′,2-dimethyl-5′-morpholino-6′-oxo-1′,6′-dihydro-[3,3′-bipyridine]-5-carboxamide]",,44.8,
"Cc1ccc(NC(=O)c2ccnc(C(C)(C)C#N)c2)cc1-c1cc(N2CCOC(C)(C)C2)c(=O)n(C)n1 [Example 666, 2-(2-cyanopropan-2-yl)-N-(3-(5-(2,2-dimethylmorpholino)-1-methyl-6-oxo-1,6-dihydropyridazin-3-yl)-4-methylphenyl)isonicotinamide]",,7.8,
"Cc1ccc(NC(=O)c2ccnc(C(F)F)c2)cc1-c1cc(OCCO)nc(N2CCOCC2)c1 [Example 1160, 2-(difluoromethyl)-N-(3-(2-(2-hydroxyethoxy)-6-morpholinopyridin-4-yl)-4-methylphenyl)isonicotinamide]",0.55,,
"Cc1ncc(NC(=O)c2cc(C(F)(F)F)ccn2)cc1-c1cc(N2CCOCC2)n2nccc2n1 [Example 810, N-(6-methyl-5-(7-morpholinopyrazolo[1,5-a]pyrimidin-5-yl)pyridin-3-yl)-4-(trifluoromethyl)picolinamide]",,1.4,
"Cc1ncc(C(=O)Nc2cccc(C(C)(C)O)c2)cc1-c1cc(N2CCOCC2)c(=O)n(C)c1 [Example 446, N-(3-(2-hydroxypropan-2-yl)phenyl)-1′,2-dimethyl-5′-morpholino-6′-oxo-1′,6′-dihydro-[3,3′-bipyridine]-5-carboxamide]",,100,
"Cc1ccc(NC(=O)c2cnnc(C(F)(F)F)c2)cc1-c1cc(N2CCOCC2)c(=O)n(C)n1 [Example 647, N-(4-methyl-3-(1-methyl-5-morpholino-6-oxo-1,6-dihydropyridazin-3-yl)phenyl)-6-(trifluoromethyl)pyridazine-4-carboxamide]",,5.3,
"Cc1ncc(NC(=O)c2ccnc(C3(C#N)CC3)c2)cc1-c1cc(N2CCOCC2)c(=O)n(C)n1 [Example 683, 2-(1-cyanocyclopropyl)-N-(6-methyl-5-(1-methyl-5-morpholino-6-oxo-1,6-dihydropyridazin-3-yl)pyridin-3-yl)isonicotinamide]",,11.2,
"Cn1cc(-c2cc(NC(=O)c3cccc(C(F)F)c3)ccc2F)cc(N2CCOCC2)c1=O [Example 417, 3-(difluoromethyl)-N-(4-fluoro-3-(1-methyl-5-morpholino-6-oxo-1,6-dihydropyridin-3-yl)phenyl)benzamide]",,,"IC50 (Table 2, 3 hours reaction): 3.1 nM"
"Cc1ccc(NC(=O)c2cnnc(C(F)(F)F)c2)cc1-c1cc(NCCO)nc(N2CCOCC2)c1F [Example 1013, N-(3-(3-fluoro-6-((2-hydroxyethyl)amino)-2-morpholinopyridin-4-yl)-4-methylphenyl)-6-(trifluoromethyl)pyridazine-4-carboxamide]",9.79,,
"Cc1ncc(NC(=O)c2ccnc(C(C)(C)C#N)c2)cc1-c1cnc(OC(C)C)c(N2CCOCC2)c1 [Example 954, 2-(2-cyanopropan-2-yl)-N-(6′-isopropoxy-2-methyl-5′-morpholino-[3,3′-bipyridin]-5-yl)isonicotinamide]",7.3,,
"Cc1ncc(NC(=O)c2cccc(C(F)(F)F)c2)cc1-c1cc(N2CCOCC2)nc(N2CCC(O)C2)c1 (stereo not drawn) [Example 1131, N-(2′-(3-hydroxypyrrolidin-1-yl)-2-methyl-6′-morpholino-[3,4′-bipyridin]-5-yl)-3-(trifluoromethyl)benzamide]",2.34,,
"CCOc1ccc(-c2cc(NC(=O)c3ccnc(C(C)(C)F)c3)cnc2C)nc1N1CCOCC1 [Example 1027, N-(5-ethoxy-2′-methyl-6-morpholino-[2,3′-bipyridin]-5′-yl)-2-(2-fluoropropan-2-yl)isonicotinamide]",8.48,,
"Cc1ccc(NC(=O)c2ccnc(C(C)(C)C#N)c2)cc1-c1cc(N2CCOCC2)c(=O)n(C)n1 [Example 191, 2-(2-cyanopropan-2-yl)-N-(4-methyl-3-(1-methyl-5-morpholino-6-oxo-1,6-dihydropyridazin-3-yl)phenyl)isonicotinamide]",,,"IC50 (Table 2, 3 hours reaction): 5.4 nM"
"Cc1ccc(NC(=O)c2cccc(C(F)(F)F)c2)cc1-c1cc(N2CCOCC2)nc(N2C(=O)OC[C@@H]2C)n1 [Example 783, (S)—N-(4-methyl-3-(2-(4-methyl-2-oxooxazolidin-3-yl)-6-morpholinopyrimidin-4-yl)phenyl)-3-(trifluoromethyl)benzamide]",,6.3,
"Cc1ccc(NC(=O)c2ccnc(S(C)(=O)=O)c2)cc1-c1cc(N2CCOCC2)c(=O)n(C)c1 [Example 184, N-(4-methyl-3-(1-methyl-5-morpholino-6-oxo-1,6-dihydropyridin-3-yl)phenyl)-2-(methylsulfonyl)isonicotinamide]",,,"IC50 (Table 2, 3 hours reaction): 3.1 nM"
"Cc1ccc(NC(=O)c2cc(C(C)(C)O)ccn2)cc1-c1cnc(OC(C)C)c(N2CCOCC2)c1 [Example 949, 4-(2-hydroxypropan-2-yl)-N-(3-(6-isopropoxy-5-morpholinopyridin-3-yl)-4-methylphenyl)picolinamide]",3.63,,

# Further lines, with some results ahead:
IC50 [1] [nM],IC50 [2] [nM],SMILES,also measured
,0.8,"Cc1ccc(NC(=O)c2ccnc(C(C)(C)F)c2)cc1-c1cc(N2CCOCC2)c(OC2CCOCC2)nn1 [Example 578, 2-(2-fluoropropan-2-yl)-N-(4-methyl-3-(5-morpholino-6-((tetrahydro-2H-pyran-4-yl)oxy)pyridazin-3-yl)phenyl)isonicotinamide]",
,1.2,"Cc1ncc(NC(=O)c2cc(C(F)(F)F)ccn2)cc1-c1cc(N2CCOCC2)c(OC2CCOCC2)nn1 [Example 629, N-(6-methyl-5-(5-morpholino-6-((tetrahydro-2H-pyran-4-yl)oxy)pyridazin-3-yl)pyridin-3-yl)-4-(trifluoromethyl)picolinamide]",
15.3,,"Cc1ncc(NC(=O)c2ccnc(C(C)(C)O)c2)cc1-c1cnc(OC2CCOCC2)c(N2CCOCC2)c1 [Example 939, 2-(2-hydroxypropan-2-yl)-N-(2-methyl-5′-morpholino-6′-((tetrahydro-2H-pyran-4-yl)oxy)-[3,3′-bipyridin]-5-yl)isonicotinamide]",
5.74,,"Cc1ncc(NC(=O)c2ccnc(C(C)(C)C#N)c2)cc1-c1cnc(OC2CC3(COC3)C2)c(N2CCOCC2)c1 [Example 967, N-(6′-(2-oxaspiro[3.3]heptan-6-yloxy)-2-methyl-5′-morpholino-[3,3′-bipyridin]-5-yl)-2-(2-cyanopropan-2-yl)isonicotinamide]",
,0.7,"CCOc1nnc(-c2cc(NC(=O)c3ccnc(C4(C#N)CC4)c3)ccc2C)cc1N1CCOCC1 [Example 568, 2-(1-cyanocyclopropyl)-N-(3-(6-ethoxy-5-morpholinopyridazin-3-yl)-4-methylphenyl)isonicotinamide]",
0.98,,"COc1nnc(-c2cc(C(=O)Nc3ccnc(C(F)(F)F)c3)ccc2C)cc1N1CCOCC1 [Example 1017, 3-(6-methoxy-5-morpholinopyridazin-3-yl)-4-methyl-N-(2-(trifluoromethyl)pyridin-4-yl)benzamide]",
,1.9,"Cc1ccc(NC(=O)c2ccnc(C(C)(C)C#N)c2)cc1-c1cc(N2CCOCC2)nc(N[C@H](C)CO)n1 [Example 749, (R)-2-(2-cyanopropan-2-yl)-N-(3-(2-((1-hydroxypropan-2-yl)amino)-6-morpholinopyrimidin-4-yl)-4-methylphenyl)isonicotinamide]",
,0.5,"COCCOc1nnc(-c2cc(NC(=O)c3cc(C(F)(F)F)ccn3)ccc2C)cc1N1CCOCC1 [Example 599, N-(3-(6-(2-methoxyethoxy)-5-morpholinopyridazin-3-yl)-4-methylphenyl)-4-(trifluoromethyl)picolinamide]",
1.35,,"Cc1ccc(NC(=O)c2ccnc(C(C)(F)F)c2)cc1-c1cnc(OC(C)C)c(N2CCOCC2)c1 [Example 945, 2-(1,1-difluoroethyl)-N-(3-(6-isopropoxy-5-morpholinopyridin-3-yl)-4-methylphenyl)isonicotinamide]",
